Reference: ChEMBL document CHEMBL1137837 (Bioorg Med Chem Lett, 2004)
pIC50, pKi: −log10 of the molar value.

Legend:
Oryctolagus cuniculus [1] = organism: Oryctolagus cuniculus; assay: Concentration required to inhibit electrically induced contraction of superfused guinea-pig trachea was determined
Oryctolagus cuniculus [2] = organism: Oryctolagus cuniculus; assay: Duration action in guinea pig
[3] = Partition coefficient (logD); assay type: physicochemical; details: octanol/water
[4] = biological target: Beta-2 adrenergic receptor (Homo sapiens, UniProt P07550)
Chain of Beta-2 adrenergic receptor (P07550 whole entry): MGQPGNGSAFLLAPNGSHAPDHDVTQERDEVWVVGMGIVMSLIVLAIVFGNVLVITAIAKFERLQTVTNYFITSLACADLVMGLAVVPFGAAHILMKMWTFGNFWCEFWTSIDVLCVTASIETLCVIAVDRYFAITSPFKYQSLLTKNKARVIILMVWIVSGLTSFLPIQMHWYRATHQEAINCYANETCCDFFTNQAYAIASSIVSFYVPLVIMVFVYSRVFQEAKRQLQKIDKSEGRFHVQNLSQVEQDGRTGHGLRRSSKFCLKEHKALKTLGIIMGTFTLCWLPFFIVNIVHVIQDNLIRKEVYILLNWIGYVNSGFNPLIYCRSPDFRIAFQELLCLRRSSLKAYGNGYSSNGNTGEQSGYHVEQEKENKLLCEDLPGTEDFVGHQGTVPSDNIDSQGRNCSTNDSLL
Description: Binding affinity for human beta-2 adrenergic receptor

Row | SMILES | pIC50 (Oryctolagus cuniculus [1]) | Duration (Oryctolagus cuniculus [2]) [h] | logD [3] | logD ([3]; read-out: logD) | pKi [4]
1 | O=CNc1cc([C@@H](O)CNCCc2cccc(OCCCOc3ccccc3)c2)ccc1O | 6.79 | 5.43 | 2.49 | 2 | 8.48
2 | O=CNc1cc([C@@H](O)CNCCc2ccc(OC3Cc4ccccc4C3)cc2)ccc1O | 6.60 | – | – | 2.95 | 7.94
3 | O=CNc1cc([C@@H](O)CNCCc2ccc(OCCCCc3ccccc3)cc2)ccc1O | 7.15 | 6.62 | 2.76 | 2.83 | 8.04
4 | O=CNc1cc([C@@H](O)CNCCc2ccc(Oc3ccccc3)cc2)ccc1O | 6.92 | – | – | 1.95 | 7.45
5 | O=CNc1cc([C@@H](O)CNCCc2ccc(OCCc3ccccc3)cc2)ccc1O | 8.96 | – | – | 1.67 | 8.11
6 | O=CNc1cc([C@@H](O)CNCCc2ccc(OCCCc3ccccc3)cc2)ccc1O | 7.42 | – | – | 2.35 | 8.23
7 | O=CNc1cc([C@@H](O)CNCCc2cccc(OCCCCc3ccccc3)c2)ccc1O | 6.94 | – | – | 2.83 | 8.07
8 | OCc1cc(C(O)CNCCCCCCOCCCCc2ccccc2)ccc1O (stereo unspecified) [SALMETEROL] | – | – | 1.24 | – | –
